Test results taken from publication PMC9049331, “X-ray crystal structure of the Escherichia coli RadD DNA repair protein bound to ADP reveals a novel zinc ribbon domain” (PLoS ONE, 2022).

Target: T1, RadD (Escherichia coli, UniProt P33919)
T1 construct: open reading frame of E. coli radD from plasmid pEAW724, no tag mentioned, expressed in E. coli STL2669 (DE3)
T1 sequence (P33919 1-586): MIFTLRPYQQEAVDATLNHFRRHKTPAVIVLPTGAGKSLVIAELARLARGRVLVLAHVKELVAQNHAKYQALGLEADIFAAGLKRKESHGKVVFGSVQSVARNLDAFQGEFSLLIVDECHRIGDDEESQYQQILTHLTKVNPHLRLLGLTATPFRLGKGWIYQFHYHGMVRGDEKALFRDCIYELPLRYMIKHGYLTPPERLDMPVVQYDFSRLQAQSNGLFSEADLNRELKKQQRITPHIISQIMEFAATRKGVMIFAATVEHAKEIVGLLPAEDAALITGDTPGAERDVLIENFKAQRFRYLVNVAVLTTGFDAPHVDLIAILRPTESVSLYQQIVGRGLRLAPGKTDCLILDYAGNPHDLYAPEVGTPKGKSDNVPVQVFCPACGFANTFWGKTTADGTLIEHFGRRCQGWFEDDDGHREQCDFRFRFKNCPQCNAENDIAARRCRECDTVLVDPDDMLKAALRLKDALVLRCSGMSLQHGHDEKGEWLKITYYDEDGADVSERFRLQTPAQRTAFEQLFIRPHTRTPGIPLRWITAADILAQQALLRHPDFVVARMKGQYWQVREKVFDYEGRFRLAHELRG
Test: X-ray crystal structure, […] A
Format: binding
Conditions: crystallised with 1 mM ATPgammaS, ADP presumed from slow hydrolysis; Mg2+; pH 7.7; 4 C; ATPase site

## Nc1ncnc2c1ncn2[C@@H]1O[C@H](COP(=O)(O)OP(=O)(O)O)[C@@H](O)[C@H]1O [ADP]
  X-ray crystal structure, 2.03 A: ADP was modelled in the RadD active site
